According to US20110319405A1, “Treatment and prevention of diffuse parenchymal lung disease by selective active-site mTOR inhibitors” (The Board of Trustees of the Leland Stanford Junior …, priority 2010, published 2011):

What was measured:
[1] = test system: Akt (Ser473 and T308) phosphorylation; assay: Basal Akt phosphorylation in IPF fibroblasts (Western blot); format: cell-based, human; conditions: for suppression of basal Akt (Ser473) phosphorylation: dose-dependent, FIG. 1A/1B
Description: (§1) Cell Culture and Reagents. Lung fibroblasts were isolated from patients undergoing surgical biopsy for the diagnosis of interstitial lung disease or lung transplant for IPF, and non-neoplastic tissue was obtained from patients undergoing surgical lung cancer resection, as described previously (Chang W. T. et al., J Biol Chem., 2001, 276, 2221-7). Fibroblasts were cultured in Dulbecco's modified Eagle's medium (DMEM) supplemented with 10% fetal bovine serum (FBS) at 5% CO2 at 37° C., and were used for studies for up to 5 passages after the initial preparation. For each experiment, cells were plated in culture vessels in DMEM complete medium and cultured until 70-80% in confluence, unless otherwise indicated.
Lung tissue was obtained from patients undergoing surgical biopsy for the diagnosis of interstitial lung disease or lung transplant for IPF, and non-neoplastic tissue was obtained from patients undergoing surgical lung cancer resection. The tissue was minced into small pieces with a scalpel and digested with type I collagenase (1 mg/ml; Invitrogen) and hyaluronidase (125 units/ml; Sigma) at 37° C. with agitation for 18 h in Dulbecco's modified Eagle's medium (DMEM; Invitrogen) supplemented with 10% fetal bovine serum. The dissociated tissues were incubated without shaking for 5 min at room temperature, followed by the separation of cell-enriched supernatant into a new tube. The cell fraction was centrifuged at 250×g for 5 min, and the pellet was then resuspended in DMEM with 10% fetal bovine serum. […] Surviving fibroblasts were cultured in DMEM supplemented with 10% fetal bovine serum at 5% CO2 at 37 ° C. […]
Western Blot Analysis. Western blot analysis and band intensity quantitation were performed as described previously (Chang W. T. et al., J Biol Chem., 2001, 276, 2221-7). Briefly, the protein concentration was measured by Bradford assay (Bio-Rad) according to the manufacturer's instructions. […] The blot was visualized by enhanced chemiluminescence (GE Healthcare) and analyzed using a Kodak Image Station 4000R system (Carestream Health, Rochester, N.Y.). […]

[2] = test system: Akt (Ser473 and T308) activation; assay: TGF-β-mediated activation of Akt in control lung fibroblasts (Western blot); format: cell-based, human
Description: as §1
(§2) Western Blot Analysis. Western blot analysis and band intensity quantitation were performed as described previously (Chang W. T. et al., J Biol Chem., 2001, 276, 2221-7). Briefly, the protein concentration was measured by Bradford assay (Bio-Rad) according to the manufacturer's instructions. An equal amount of protein was separated by SDS-PAGE and transferred to polyvinylidene difluoride membrane. […] The blot was visualized by enhanced chemiluminescence (GE Healthcare) and analyzed using a Kodak Image Station 4000R system (Carestream Health, Rochester, N.Y.).
In further studies, we examined if inhibition of mTORC1 and/or mTORC2 would limit TGF-β-mediated induction of stromal genes.

[3] = test system: TGF-β-stimulated control lung fibroblasts; assay: TGF-β-mediated induction of stromal proteins in control lung fibroblasts (Western blot); format: cell-based, human
Description: as §1, §2
In further studies, we examined if inhibition of mTORC1 and/or mTORC2 would limit TGF-β-mediated induction of stromal genes. […]

[4] = test system: IPF fibroblasts; assay: Basal expression of stromal proteins in IPF fibroblasts (Western blot); format: cell-based, human
Description: as §1
Lung tissue was obtained from patients undergoing surgical biopsy for the diagnosis of interstitial lung disease or lung transplant for IPF, and non-neoplastic tissue was obtained from patients undergoing surgical lung cancer resection. The tissue was minced into small pieces with a scalpel and digested with type I collagenase (1 mg/ml; Invitrogen) and hyaluronidase (125 units/ml; Sigma) at 37° C. with agitation for 18 h in Dulbecco's modified Eagle's medium (DMEM; Invitrogen) supplemented with 10% fetal bovine serum. The dissociated tissues were incubated without shaking for 5 min at room temperature, followed by the separation of cell-enriched supernatant into a new tube. The cell fraction was centrifuged at 250×g for 5 min, and the pellet was then resuspended in DMEM with 10% fetal bovine serum. […] Surviving fibroblasts were cultured in DMEM supplemented with 10% fetal bovine serum at 5% CO2 at 37 ° C. Each fibroblast culture was frozen at its earliest available passage and was used for studies for up to five passages. For each experiment, cells were plated in culture vessels in DMEM and cultured until 70-80% confluent, unless indicated otherwise. Cells were subjected to starvation by washing cells twice with 1× phosphate-buffered saline (PBS), followed by the addition of DMEM and 0.1% serum to each well and incubation for an additional 24 h. In the experiments for cell death induced by Glu-plasminogen (American Diagnostica Inc., Stamford, Conn.), phenol red-free DMEM was used.
Western Blot Analysis. Western blot analysis and band intensity quantitation were performed as described previously (Chang W. T. et al., J Biol Chem., 2001, 276, 2221-7). Briefly, the protein concentration was measured by Bradford assay (Bio-Rad) according to the manufacturer's instructions. An equal amount of protein was separated by SDS-PAGE and transferred to polyvinylidene difluoride membrane. […] The blot was visualized by enhanced chemiluminescence (GE Healthcare) and analyzed using a Kodak Image Station 4000R system (Carestream Health, Rochester, N.Y.). […]

[5] = molecular target: mTORC1 (Homo sapiens, UniProt P42345); conditions: in vitro; cited from earlier work
[6] = molecular target: mTORC2 (Homo sapiens, UniProt P42345); conditions: in vitro; cited from earlier work
[7] = mice, PP242 30 mg/kg oral daily
Description: Six-week-old male C57BL/6 mice weighing between 20 to 23 g were obtained from The Jackson Laboratory (Bar Harbor, Me.) and all care was in accordance with the National Institutes of Health Guide for Animal Welfare Act. […] All mice were sacrificed on day 14 and the right lungs were first fixed by inflation with buffered 10% formalin solution, then incubated in the same solution for 24 hours. After paraffin-embedding, sections were processed, and stained with hematoxylin and eosin (H&E) for light microscopy. The left lungs were frozen in liquid nitrogen for subsequent analysis of hydroxyproline content.

[8] = test system: bleomycin-induced pulmonary fibrosis; assay: Murine model of bleomycin-induced pulmonary fibrosis
Description: Murine model of bleomycin-induced pulmonary fibrosis. Six-week-old male C57BL/6 mice weighing between 20 to 23 g were obtained from The Jackson Laboratory (Bar Harbor, Me.) and all care was in accordance with the National Institutes of Health Guide for Animal Welfare Act. Mice were administrated 0.1 ml of sterile saline (N=5) or bleomycin (Blenoxane, Novaplus, 1.5 U/kg of body weight; VHA Inc., Nippon Kayaku Co., Tokyo, Japan) at day 0 via intratracheal instillation under anesthesia (Krishna, G. et al., Am J Pathol. 2001, 158, 997-1004). […] All mice were sacrificed on day 14 and the right lungs were first fixed by inflation with buffered 10% formalin solution, then incubated in the same solution for 24 hours. After paraffin-embedding, sections were processed, and stained with hematoxylin and eosin (H&E) for light microscopy. The left lungs were frozen in liquid nitrogen for subsequent analysis of hydroxyproline content.
Histological Scoring of Fibrosis. The severity of fibrosis from each lung section was assessed by Ashcroft score (Ashcroft T. et al., J Clin Pathol, 1988, 41, 467-70). Briefly, the grade of lung fibrosis was scored on a scale from 0 to 8 by examining 30 randomly chosen fields per sample at a magnification of ×100. Criteria for grading lung fibrosis were as follows: grade 0, normal lung; grade 1, minimal fibrous thickening of alveolar or bronchiolar walls; grade 3, moderate thickening of walls without obvious damage to lung architecture; grade 5, increased fibrosis with definite damage to lung structure and formation of fibrous bands or small fibrous masses; grade 7, severe distortion of structure and large fibrous areas; grade 8, total fibrous obliteration of fields. If there was difficulty in deciding between two odd-numbered categories, the field would be given the intervening even-numbered grade.

[9] = control lung fibroblasts + TGF-β
[10] = TGF-β-treated control fibroblasts
[11] = PP242 30 mg/kg oral daily from Day -1, bleomycin 1.5 U/kg intratracheal, Day 14, vs bleomycin alone
[12] = mouse lung, PP242 30 mg/kg oral

SMILES: COc1ccc(-c2ccc3c(N4CCOCC4)nc(N4C[C@@H](C)O[C@@H](C)C4)nc3n2)cc1CO [Ku-0063794]
- suppression of basal Akt (T308) phosphorylation ([1]; FIG. 1B): more effective than rapamycin or PP242
- suppression of basal Akt (Ser473) phosphorylation [1]: suppressed
- blocking of TGF-β activation of Akt (Ser473) [2]: blocked
- blocking of TGF-β activation of Akt (T308) [2]: blocked
- inhibition of TGF-β induction of PAI-1 [3, 9]: 30%

SMILES: O=c1[nH]c2ccccc2n1C1CCN(Cc2ccc(-c3nc4cc5[nH]cnc5cc4nc3-c3ccccc3)cc2)CC1 [Akti VIII]
- suppression of basal FN expression (in words) ([4]; FIG. 3C): suppressed
- suppression of basal type I collagen expression (in words) ([4]; FIG. 3C): suppressed
- suppression of basal α-SMA expression (in words) ([4]; FIG. 3C): suppressed
- inhibition of TGF-β induction of FN (in words) [3, 10]: inhibited
- inhibition of TGF-β induction of type I collagen (in words) [3, 10]: inhibited

SMILES: CC(C)n1nc(-c2cccc(C(=O)NC3=NCCS3)c2)c2c(N)ncnc21 [PP30]
- inhibition of mTOR in mTORC1 [5]: inhibit
- inhibition of mTOR in mTORC2 [6]: inhibit

SMILES: CC(C)n1nc(-c2cc3cc(O)ccc3[nH]2)c2c(N)ncnc21 [PP242]
- tolerability [7]: well tolerated
- suppression of basal Akt (Ser473) phosphorylation [1]: suppressed
- reduction in hydroxyproline content [8, 11]: 40%
- reduction in the Ashcroft score [8, 11]: 70%
- positive staining for picosirius red (marker of new collagen synthesis) ([8]; mouse lung after bleomycin, PP242 30 mg/kg oral): marked reduction
- accumulation of α-SMA-positive fibroblasts following bleomycin [8, 12]: inhibited
- bleomycin-mediated induction of MTS1/S100A4 [8, 12]: significantly inhibited
- bleomycin-mediated induction of PAI-1 [8, 12]: a trend, but not a statistically significant inhibition
- bleomycin-mediated induction of SPARC [8, 12]: significantly inhibited
- bleomycin-mediated induction of matrix metalloproteinase 7/matrilysin 1 (MMP-7) [8, 12]: significantly inhibited
- Ashcroft score (scale from 0 to 8) ([8]; saline+PP242 group, no bleomycin): zero

SMILES: CO[C@H]1C[C@@H]2CC[C@@H](C)[C@@](O)(O2)C(=O)C(=O)N2CCCC[C@H]2C(=O)O[C@H]([C@H](C)C[C@@H]2CC[C@@H](O)[C@H](OC)C2)CC(=O)[C@H](C)/C=C(\C)[C@@H](O)[C@@H](OC)C(=O)[C@H](C)C[C@H](C)/C=C/C=C/C=C/1C [rapamycin]
- inhibition of basal expression of type I collagen [4]: 50%
- blocking of TGF-β induction of FN [3, 9]: 30%-50%
- blocking of TGF-β induction of SPARC [3, 9]: 30%-50%
- blocking of TGF-β induction of α-SMA [3, 9]: 30%-50%
- inhibition of TGF-β induction of PAI-1 [3, 9]: 30%
- inhibition of type I collagen in the presence of TGF-β ([3]; control lung fibroblasts + TGF-β, FIG. 2C): 45%
